# Laboratory results reported in patent US11247970B2, “Selective inhibition of gluconeogenic activity” (Dana-Farber Cancer Institute, Inc., priority 2017, dated 2022).
# “Also recorded” adds a separate entry of the source.
# What was measured:
# GCN5 = molecular target: T1, GCN5 (Homo sapiens, UniProt Q92830); assay: GCN5 HAT activity assay; type: biochemical; conditions: H3 peptide
# T1 construct: made in house; host or cells: U-2 OS cells overexpressing Ad-GCN5; FLAG immunoprecipitation, elution with 3×FLAG peptide
# T1 sequence (Q92830 whole entry, species assumed): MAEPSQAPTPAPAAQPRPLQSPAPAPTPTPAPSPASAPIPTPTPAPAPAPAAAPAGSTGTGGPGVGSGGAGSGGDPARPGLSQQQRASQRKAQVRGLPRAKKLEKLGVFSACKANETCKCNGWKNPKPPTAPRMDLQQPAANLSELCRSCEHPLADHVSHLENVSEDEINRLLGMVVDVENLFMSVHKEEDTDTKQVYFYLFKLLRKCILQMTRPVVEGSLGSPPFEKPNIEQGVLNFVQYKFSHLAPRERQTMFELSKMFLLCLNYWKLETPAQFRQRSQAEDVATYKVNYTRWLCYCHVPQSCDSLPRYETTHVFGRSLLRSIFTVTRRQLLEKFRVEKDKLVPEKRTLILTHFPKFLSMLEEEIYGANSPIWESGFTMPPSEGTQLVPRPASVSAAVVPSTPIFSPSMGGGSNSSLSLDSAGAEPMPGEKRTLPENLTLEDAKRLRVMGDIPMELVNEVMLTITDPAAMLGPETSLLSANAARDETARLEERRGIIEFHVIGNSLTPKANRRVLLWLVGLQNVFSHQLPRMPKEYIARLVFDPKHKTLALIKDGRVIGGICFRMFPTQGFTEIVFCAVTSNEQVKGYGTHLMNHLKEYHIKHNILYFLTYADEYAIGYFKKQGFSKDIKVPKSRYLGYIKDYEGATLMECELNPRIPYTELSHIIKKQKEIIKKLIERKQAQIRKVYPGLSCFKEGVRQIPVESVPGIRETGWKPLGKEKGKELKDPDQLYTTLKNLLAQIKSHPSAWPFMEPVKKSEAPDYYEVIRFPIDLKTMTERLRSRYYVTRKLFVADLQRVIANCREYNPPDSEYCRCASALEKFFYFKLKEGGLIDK
# Description: For determination of GCN5 HAT activity U-2 OS cells overexpressing Ad-GCN5 were treated with SR-18292 ([…]) for 18 h. Cells were lysed with buffer B (20 mM HEPES-KOH (pH 7.9), 125 mM NaCl, 1 mM EDTA, 1 mM DTT, 1% IGEPAL (v/v), 10% glycerol (v/v), 5 mM NaF, 5 mM β-glycerophosphate, 5 mM sodium butyrate and 10 mM nicotinamide), supplemented with Protease Inhibitor Cocktail. FLAG-GCN5 was immunoprecipitated with FLAG beads overnight at 4° C. following multiple washes with lysis buffer. GCN5 was then eluted using 3×FLAG peptide and the purified protein was used to determine HAT activity using the HAT Inhibitor Screening Assay Kit (Cayman Chemicals) per manufacturer instructions. To determine the potential effect of SR-18292 on GCN5 activity in vitro, GCN5 was purified from U-2 OS cells in a similar manner but without treatment with SR-18292.
# PGC-1α = molecular target: T2, PGC-1α (Mus musculus, UniProt O70343); assay: Mass spectrometry of acetylated PGC-1α lysine residues; type: cell-based; parameters: expressed in transfected cells; host or cells: U-2 OS cells infected with Ad-PGC-1α and Ad-GCN5; conditions: U-2 OS, Ad-PGC-1α and Ad-GCN5, 18 h
# T2 sequence (O70343 1-797): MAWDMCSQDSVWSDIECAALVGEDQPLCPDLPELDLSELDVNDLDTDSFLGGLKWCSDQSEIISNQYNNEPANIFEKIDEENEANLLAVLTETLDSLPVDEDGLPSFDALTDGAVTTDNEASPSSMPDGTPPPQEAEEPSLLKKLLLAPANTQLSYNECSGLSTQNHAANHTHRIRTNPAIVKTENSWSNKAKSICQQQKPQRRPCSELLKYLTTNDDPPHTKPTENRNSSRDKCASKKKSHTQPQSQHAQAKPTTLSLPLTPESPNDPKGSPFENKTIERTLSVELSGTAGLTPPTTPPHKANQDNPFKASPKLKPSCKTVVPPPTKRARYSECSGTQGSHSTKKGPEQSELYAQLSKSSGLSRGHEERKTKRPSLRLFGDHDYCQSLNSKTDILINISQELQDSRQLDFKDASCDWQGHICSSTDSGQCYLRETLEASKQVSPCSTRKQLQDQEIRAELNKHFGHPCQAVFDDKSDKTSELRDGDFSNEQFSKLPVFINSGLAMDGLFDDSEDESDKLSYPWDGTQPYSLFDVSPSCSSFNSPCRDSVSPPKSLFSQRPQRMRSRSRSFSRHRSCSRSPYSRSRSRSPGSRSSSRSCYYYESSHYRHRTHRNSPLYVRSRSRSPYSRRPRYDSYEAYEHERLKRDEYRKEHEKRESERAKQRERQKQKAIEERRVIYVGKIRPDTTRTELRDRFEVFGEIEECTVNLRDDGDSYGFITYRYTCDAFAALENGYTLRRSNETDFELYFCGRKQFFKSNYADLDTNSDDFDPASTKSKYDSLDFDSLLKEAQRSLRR
# Description: Gel bands were dehydrated with acetonitrile, dried and resuspended in 50 mM ammonium bicarbonate (pH 8.0) containing 500 ng of sequencing-grade trypsin (Promega) and incubated at 37° C. for 8 hours. Digested samples were then loaded onto StageTips and desalted. Peptides were eluted with 50% acetonitrile, 5% formic acid, dried using a Speed-Vac apparatus, and resuspended in 25 μl of HEPES, pH 8.5. Peptides were labeled with 6-plex tandem mass tag (TMT) reagents (Thermo Scientific, Rockford, Ill.). After 1 hour of incubation at room temperature, the reaction was quenched with hydroxylamine and acidification with formic acid to pH˜2. TMT labeled peptides were combined, desalted by StageTips, dried and resuspended in 10 μl of 1% formic acid. All spectra were acquired using an Oribtrap Fusion mass spectrometer (Thermo Scientific) in line with an Easy-nLC 1200 (Thermo Fisher Scientific) ultra-high pressure liquid chromatography (UHPLC) pump. […] For MS3 based TMT quantitation, MS2 spectra were collected at an AGC of 4000, max injection time of 150 ms, and CID collision energy set at 35%. […] For quantification, a 0.03 m/z window centered on the theoretical DA value of each reporter ion was utilized for the nearest maximal signal intensity. […]
smiles,measurement,setting,value
"Cc1ccc(CN(CC(O)COc2cccc3[nH]ccc23)C(C)(C)C)cc1 (stereo not drawn) [SR-18292, 1-((1H-indol-4-yl)oxy)-3-(tert-butyl(4-methylbenzyl)amino)propan-2-ol]",catalytic (HAT) activity of GCN5 immunoprecipitated from treated cells,GCN5; U-2 OS cells treated 18 h,not changed; also recorded: not increased
same,GCN5 HAT activity on in vitro treatment of IPed GCN5,GCN5; in vitro treatment,did not result in increased activity; also recorded: not affected
same,number of PGC-1α lysine residues with increased acetylation,PGC-1α,7
